Test results: EP0120757A1, “Compositions in the form of microglobules consisting of partially quaternised, tertiary polyamines, and containing hydrophobic compounds, their preparation and application” (Etablissement Public dit: CENTRE NATIONAL DE LA RECHERCHE …, priority 1983, dated 1984)
In brackets after ≈: the same amount, converted by molar mass.

Experiments:
[1] = Solubilisation of griseofulvine in aqueous Q-P(TDAE)19 microglobule solution, assayed by circular dichroism at 294 nm after filtration; assay type: physicochemical; details: Example 5, Q-P(TDAE)19 TN = 2,5 x 10^-2 N, per ml of filtrate
Protocol: Les essais sont effectués à partir d'une solution basique de Q-P(TDAE)19 (TN= 2,5 x 10^-2 N). Des échantillons contenant 5ml de cette solution basique sont ajustés aux pH correspondant aux différents β par addition de HC1 0,5N).
7mg de griseofulvine en poudre sont ajoutés à chaque échantillon. On laisse soniquer pendant 5 minutes et on filtre les mélanges sur filtre millipore (0,45 micromètre). Les filtrats limpides sont conservés de la même façon que pour les exemples 1 et 2. Le dosage de la griseofulvine solubilisée est effectué dans le milieu solvant eau-acétonitrile : 20/80, V/V. On prélève dans chaque essai, 1ml de filtrat qui est dilué à 5ml par de l'acétonitrile. Les ellipticités des différentes solutions sont mesurées à λ = 294nm et comparées à des solutions standard de griseofulvine dissoutes dans le même milieu solvant.
Le tableau suivant donne les quantités de griseofulvine dissoute (en microgrammes par ml de filtrat) en fonction du pH et du degré de protonation β . La solubilité de la griseofulvine dans l'eau est de l'ordre de 13 à 15 microgrammes par ml.

[2] = Solubility of the hydrophobic drug in water without polymer
[3] = Solubilisation of progestérone in aqueous Q-P(TDAE)19 microglobule solution, assayed by circular dichroism at 285 nm after filtration; assay type: physicochemical; details: for progestérone (microgrammes/ml): per ml of filtrate; for quantité de progestérone dissoute: Example 3, Q-P(TDAE)19 TN = 0,125 N, pH = 7,7, β = 0,06
Protocol: A) Les essais sont effectués à partir d'une solution basique de poly(diéthylaminométhyl thiiranne) quaternisée à 19% Q-P(TDAE)19 de formule [drawing 4] X étant un anion (par exemple un anion halogénure tel que chlorure ou bromure), à une concentration TN = (2,5+ 0,1)x 10^-2 N (polymère = 3,77mg de polymère sous forme basique par ml de solution).
Cette solution est obtenue de la façon suivante: • 270mg de chlorhydrate de Q-P(TDAE)19 sont dissous dans 10ml d'eau distillée, puis passés sur une résine échangeuse d'anions (BIO-RAD AG 1-x4-20-50 mesh-) sous forme OH et récupérés dans une fiole jaugée de 50ml.
Des échantillons contenant 5m1 de cette solution basique sont ajustés, par addition de HC1 0,5N, aux pH correspondant à différentes valeurs du degré de protonation apparent de la fonction amine tertiaire résiduelle dans le domaine 0 < β< 1. On ajoute 5mg de progestérone en poudre à chaque échantillon et les mélanges sont soit soniqués pendant 5 minutes soit agités pendant 48 heures.
Après dissolution, chaque échantillon est filtré sur filtre millipore (0,45 micromètres). Les filtrats sont clairs et limpides. Le système "véhicule-drogue" peut être conservé de deux façons différentes: • - en solution, pendant quelques mois au réfrigérateur • - sous forme solide, en lyophilisant les filtrats et en les conservant sous vide. Le filtrat lyophilisé se solubilise rapidement en solution aqueuse.
Le dosage de la progestérone solubilisée ne peut être fait que par extraction de cette dernière des microémulsions. Cette extraction est obtenue par éclatement des véhicules globulaires dans un mélange filtrat-éthanol absolu dans le rapport V/V : 20/80. 1ml de chaque filtrat est dilué à 5ml par addition d'éthanol. Les différents filtrats présentent dans la région 350-250nm des bandes dichrolques caractéristiques de la progestérone. Le signal de dichroisme circulaire à λ = 285nm est utilisable pour évaluer la quantité de progestérone présente dans chaque filtrat par comparaison avec les ellipticités de solutions standard de progestérone dissoute dans le même milieu solvant.
Le tableau suivant donne les quantités de progestérone solubilisée (en microgramme par ml de filtrat) en fonction du pH et du degré de protonation β pour chaque essai.
On opère comme à l'exemple 1 mais les essais sont effectués à partir d'une concentration TN = 0,15N de Q-P(TDAE)19 sous forme basique. Des échantillons contenant 2ml de cette solution sont ajustés à différents β par addition de HC1 N et additionnés de 5mg de progestérone. Après sonication pendant 5 minutes, les mélanges sont filtrés sur filtre millipore (0,45 micromètre). Le dosage de la progestérone solubilisée est fait comme précédemment. 0,2ml de chaque filtrat sont dilués à 2ml par de l'éthanol absolu. Les ellipticités sont mesurées â λ = 285nm et comparées aux solutions standard de progestérone effectuées dans les mêmes conditions.
Le tableau suivant donne les quantités de progestérone solubilisée (en microgrammes par ml de filtrat) en fonction du pH et du degré de protonation S.
Deux essais sont réalisés dans les mêmes conditions: concentration en polymère, β et pH identiques mais on ajoute au deuxième essai, du chlorure de sodium de telle façon que la solution soit à 0,9X en NaCl.
Deux échantillons contenant 2m1 de solution basique de Q-P(TDAE)19 (TN = 0,125 N) sont ajustés à pH = 7,7 et à β= 0,06 par addition de 0,06ml de HCl N. Dans le deuxième échantillon, on ajoute 18mg de NaCl. 5mg de progestérone sont additionnés à chaque échantillon. Les mélanges sont soniqués pendant 5 minutes. Le protocole de filtration et de dosage de la progestérone solubilisée est le même qu'à l'exemple 2.

Compound: COC1=CC(=O)C[C@@H](C)[C@]12Oc1c(Cl)c(OC)cc(OC)c1C2=O [griseofulvine]
- griseofulvine (microgrammes/ml) ([1]; essai 1, pH 7,6, β 0,02): 47 microgrammes/ml
- griseofulvine (microgrammes/ml) ([1]; essai 2, pH 7,08, β 0,093): 43 microgrammes/ml
- griseofulvine (microgrammes/ml) ([1]; essai 3, pH 7,0, β 0,185): 36 microgrammes/ml
- griseofulvine (microgrammes/ml) ([1]; essai 4, pH 6,95, β 0,26): 30 microgrammes/ml
- griseofulvine (microgrammes/ml) ([1]; essai 5, pH 6,95, β 0,32): 26 microgrammes/ml
- griseofulvine (microgrammes/ml) ([1]; essai 6, pH 6,95, β 0,42): 22 microgrammes/ml
- griseofulvine (microgrammes/ml) ([1]; essai 7, pH 6,83, β 0,51): 18 microgrammes/ml
- griseofulvine (microgrammes/ml) ([1]; essai 8, pH 6,67, β 0,673): 15 microgrammes/ml
- griseofulvine (microgrammes/ml) ([1]; essai 9, pH 6,20, β 0,89): 15 microgrammes/ml
- griseofulvine (microgrammes/ml) ([1]; essai 10, pH 4,5 à 4,6, β 1): 15 microgrammes/ml
- solubility [2]: 13 to 15 µg/mL (≈ 36.9 to 42.5 µM)

Compound: progestérone
- progestérone (microgrammes/ml) ([3]; Example 1, Q-P(TDAE)19 TN = 2,5 x 10^-2 N, essai 1, pH 7,5, β 0,07): 75 microgrammes/ml
- progestérone (microgrammes/ml) ([3]; Example 1, Q-P(TDAE)19 TN = 2,5 x 10^-2 N, essai 2, pH 6,97, β 0,135): 62-64 microgrammes/ml
- progestérone (microgrammes/ml) ([3]; Example 1, Q-P(TDAE)19 TN = 2,5 x 10^-2 N, essai 3, pH 6,95, β 0,20): 48-50 microgrammes/ml
- progestérone (microgrammes/ml) ([3]; Example 1, Q-P(TDAE)19 TN = 2,5 x 10^-2 N, essai 4, pH 6,95, β 0,26): 38 microgrammes/ml
- progestérone (microgrammes/ml) ([3]; Example 1, Q-P(TDAE)19 TN = 2,5 x 10^-2 N, essai 5, pH 6,95, β 0,38): 26 microgrammes/ml
- progestérone (microgrammes/ml) ([3]; Example 1, Q-P(TDAE)19 TN = 2,5 x 10^-2 N, essai 6, pH 6,80, β 0,63): 14-16 microgrammes/ml
- progestérone (microgrammes/ml) ([3]; Example 1, Q-P(TDAE)19 TN = 2,5 x 10^-2 N, essai 7, pH 6,55, β 0,75): 11-12 microgrammes/ml
- progestérone (microgrammes/ml) ([3]; Example 1, Q-P(TDAE)19 TN = 2,5 x 10^-2 N, essai 8, pH 6,15, β 0,88): 11-12 microgrammes/ml
- progestérone (microgrammes/ml) ([3]; Example 2, Q-P(TDAE)19 TN = 0,15N, essai 1, pH 7,50, β 0,13): 315 microgrammes/ml
- progestérone (microgrammes/ml) ([3]; Example 2, Q-P(TDAE)19 TN = 0,15N, essai 2, pH 7,50, β 0,17): 300 microgrammes/ml
- progestérone (microgrammes/ml) ([3]; Example 2, Q-P(TDAE)19 TN = 0,15N, essai 3, pH 7,50, β 0,26): 225 microgrammes/ml
- progestérone (microgrammes/ml) ([3]; Example 2, Q-P(TDAE)19 TN = 0,15N, essai 4, pH 7,40, β 0,47): 185-190 microgrammes/ml
- progestérone (microgrammes/ml) ([3]; Example 2, Q-P(TDAE)19 TN = 0,15N, essai 5, pH 7,36, β 0,51): 80 microgrammes/ml
- progestérone (microgrammes/ml) ([3]; Example 2, Q-P(TDAE)19 TN = 0,15N, essai 6, pH 7,25, β 0,58): 70 microgrammes/ml
- progestérone (microgrammes/ml) ([3]; Example 2, Q-P(TDAE)19 TN = 0,15N, essai 7, pH 4,8, β 0,98): 10 à 12 microgrammes/ml
- quantité de progestérone dissoute ([3]; with NaCl, solution at 0,9X en NaCl (18mg in 2ml)): 375 microgrammes par ml de filtrat
- quantité de progestérone dissoute ([3]; without NaCl): 375 microgrammes par ml de filtrat
- solubilité dans l'eau ([2]; no polymer, approximate values, no source stated): 11 à 12 microgrammes par ml
